Results from PMC7470113, “Design, synthesis and biological evaluation of edaravone derivatives bearing the N-benzyl pyridinium moiety as multifunctional anti-Alzheimer’s agents” (Journal of Enzyme Inhibition and Medicinal Chemistry, 2020).
Where two headings read alike, the source gives them in different places.

Legend:
[1] = target: T1, eeAChE (Electrophorus electricus, UniProt O42275); experiment: Cholinesterase inhibition assay (modified Ellman's method), eeAChE; type: biochemical; details: for IC50: eeAChE, Ellman, 25 °C, triplicate, read-out: AChE IC50; for SI AChE (AChE selectivity index = IC50(eqBuChE)/IC50(eeAChE)): ratio BuChE/AChE
T1 construct: purchased Sigma-Aldrich
T1 sequence (O42275 24-633): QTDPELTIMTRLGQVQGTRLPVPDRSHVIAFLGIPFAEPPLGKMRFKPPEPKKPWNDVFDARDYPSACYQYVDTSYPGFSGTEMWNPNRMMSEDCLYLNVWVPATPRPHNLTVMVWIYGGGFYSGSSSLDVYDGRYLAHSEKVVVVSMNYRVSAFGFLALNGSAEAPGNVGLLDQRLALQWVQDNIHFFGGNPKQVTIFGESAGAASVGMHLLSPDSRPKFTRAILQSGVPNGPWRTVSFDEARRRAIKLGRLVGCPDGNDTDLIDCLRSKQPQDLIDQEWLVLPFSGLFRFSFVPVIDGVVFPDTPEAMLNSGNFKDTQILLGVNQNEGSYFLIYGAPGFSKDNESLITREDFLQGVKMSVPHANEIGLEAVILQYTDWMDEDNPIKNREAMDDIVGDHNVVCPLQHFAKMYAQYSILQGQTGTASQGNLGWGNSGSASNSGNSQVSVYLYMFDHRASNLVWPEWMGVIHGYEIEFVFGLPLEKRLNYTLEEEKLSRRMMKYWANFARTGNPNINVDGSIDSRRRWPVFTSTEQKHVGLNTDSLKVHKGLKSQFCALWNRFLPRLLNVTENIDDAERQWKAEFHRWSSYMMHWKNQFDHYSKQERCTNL
Procedure: (§1) . […] The test compounds and control were dissolved in DMSO and added to the well to yield various concentrations (1000 µM, 100 µM, 10 µM, 1 µM, 0.1 µM and 0.01 µM). The quantity of DMSO per well accumulated to below 0.01%[45]. Each concentration of test compound and control was conducted in triplicate to ensure consistent results. The well-plates were then incubated at 25 °C for 10 min. Thereafter, 30 µL of either the ATCI or BTCI substrate was added to each well. The plate was then placed inside a Rayto 6500 spectrometer and the absorbance was read at 405 nm every 45 s for 5 min. The percentage activity was calculated using the following equation: [(absorbance of blank − absorbance of test compounds)/absorbance of blank × 100)]. All data analysis was conducted on GraphPad Prism version 8.2.1 for Mac OS, GraphPad Software (San Diego, CA, USA)
(§2) The inhibitory activities of the synthesised compounds were evaluated using eeAChE (electric eel) and eqBuChE (equine serum) according to a modified method of Ellman[44]. […].

[2] = DPPH+ free radical scavenging antioxidant assay
Procedure: Antioxidant activity was studied with the DPPH^+ free radical scavenging assay[46]^,[47]. DPPH^+ and trolox were purchased from Sigma-Aldrich®. The following method was employed, as previously described, to determine the antioxidant activity of the test compounds. Each well of a 96 well plate, contained the following: 180 µL of 0.12 mM DPPH^+ dissolved in methanol and 20 µL of either test compound, control (trolox) or blank (DMSO). The test compounds and control were dissolved in DMSO and added to the well to yield various concentrations (1000 µM, 100 µM, 10 µM, 1 µM and 0.1 µM). […] The well plate was incubated at 25 °C for 30 min within a dark space. […] The quantity of DMSO per well accumulated to below 0.01%[45]. […] The percentage activity was calculated using the following equation: [(absorbance of blank − absorbance of test compounds)/absorbance of blank × 100)]. All data analysis was conducted on GraphPad Prism version 8.2.1 for Mac OS, GraphPad Software (San Diego, California, USA).
The 2,2-diphenyl-1-picrylhydrazyl (DPPH^+) assay was employed to determine the antioxidant ability of the synthesised compounds.

[3] = target: T2, eqBuChE (Equus caballus, UniProt P81908); experiment: Cholinesterase inhibition assay (modified Ellman's method), eqBuChE; type: biochemical; details: 25 °C, triplicate, read-out: BuChE IC50
T2 construct: purchased Sigma-Aldrich; host or cells: equine serum
T2 sequence (P81908 whole entry): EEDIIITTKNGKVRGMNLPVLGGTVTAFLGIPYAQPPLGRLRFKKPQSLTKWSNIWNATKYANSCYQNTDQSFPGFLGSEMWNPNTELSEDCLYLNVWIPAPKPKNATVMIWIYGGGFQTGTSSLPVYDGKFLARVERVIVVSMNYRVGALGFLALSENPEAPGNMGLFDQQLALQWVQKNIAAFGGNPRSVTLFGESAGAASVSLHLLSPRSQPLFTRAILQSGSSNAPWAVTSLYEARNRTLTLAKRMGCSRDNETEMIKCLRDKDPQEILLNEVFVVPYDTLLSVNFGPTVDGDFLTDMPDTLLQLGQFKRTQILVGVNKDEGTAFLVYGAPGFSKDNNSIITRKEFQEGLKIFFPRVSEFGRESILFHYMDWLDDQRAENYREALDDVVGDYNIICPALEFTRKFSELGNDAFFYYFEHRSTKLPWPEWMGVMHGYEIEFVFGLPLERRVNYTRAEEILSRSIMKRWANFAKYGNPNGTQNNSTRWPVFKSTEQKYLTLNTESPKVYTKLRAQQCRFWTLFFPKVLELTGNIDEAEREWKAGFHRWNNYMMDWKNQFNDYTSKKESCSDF
Procedure: as §1, §2

[4] = set-up: method as in PMID 29907205; details: read-out: DPPH+ IC50 (antioxidant activity of edaravone); cited from earlier work
[5] = 0.12 mM DPPH+ in methanol, 30 min, 25 °C, 517 nm, read-out: DPPH+ IC50

Compound	IC50 [1] [µM]	SI AChE (AChE selectivity index = IC50(eqBuChE)/IC50(eeAChE)) [1]	IC50 [2, 5] [µM]	IC50 [3] [µM]	IC50 [4] [µM]	IC50 ([2]; supplement, dose response curves, read-out: Antioxidant activity (DPPH+) dose response curve IC50) [µM]
CC1=NN(c2ccc(C(=O)NCc3cc[n+](Cc4ccccc4)cc3)cc2)C(=O)C1 [Compound 5a, 1-Benzyl-4-({[4–(3-methyl-5-oxo-4H-pyrazol-1-yl)phenyl]foramido}methyl)pyridin-1-ium bromide]	30	>33	22.9	> 1000	–	–
CC1=NN(c2ccc(C(=O)NCc3cc[n+](Cc4ccc(C)cc4)cc3)cc2)C(=O)C1 [Compound 5l]	95.5	>11	14.5	> 1000	–	–
CC1=NN(c2ccc(C(=O)NCc3cc[n+](Cc4ccccc4F)cc3)cc2)C(=O)C1 [Compound 5b, 1-[(2-Fluorophenyl)methyl]-4-({[4–(3-methyl-5-oxo-4H-pyrazol-1-yl)phenyl]foramido}methyl)pyridin-1-ium bromide]	1.2	–	28.8	> 1000	–	–
CC1=NN(c2ccc(C(=O)NCc3cc[n+](Cc4cccc(C)c4)cc3)cc2)C(=O)C1 [Compound 5k]	69.1	>15	27.5	> 1000	–	–
CC1=NN(c2ccc(C(=O)NCc3cc[n+](Cc4ccc(Br)cc4)cc3)cc2)C(=O)C1 [Compound 5i, 1-[(4-Bromophenyl)methyl]-4-({[4–(3-methyl-5-oxo-4H-pyrazol-1-yl)phenyl]foramido}methyl)pyridin-1-ium bromide]	11.5	>87	18.1	> 1000	–	–
CC1=NN(c2ccc(C(=O)NCc3cc[n+](Cc4ccccc4Cl)cc3)cc2)C(=O)C1 [Compound 5e, 1-[(2-Chlorophenyl)methyl]-4-({[4–(3-methyl-5-oxo-4H-pyrazol-1-yl)phenyl]foramido}methyl)pyridin-1-ium bromide]	1.9	468	13.8	890	–	–
CC1=NN(c2ccc(C(=O)NCc3cc[n+](Cc4cccc(Cl)c4)cc3)cc2)C(=O)C1 [Compound 5f, 1-[(3-Chlorophenyl)methyl]-4-({[4–(3-methyl-5-oxo-4H-pyrazol-1-yl)phenyl]foramido}methyl)pyridin-1-ium bromide]	3.3	270	13.1	891	–	–
CC1=NN(c2ccc(C(=O)O)cc2)C(=O)C1 [Compound 1, Edaravone-COOH]	–	–	45.7	–	–	–
CC1=NN(c2ccc(C(=O)NCc3cc[n+](Cc4ccccc4C)cc3)cc2)C(=O)C1 [Compound 5j]	19.9	32	9.5	630	–	–
CC1=NN(c2ccccc2)C(=O)C1 [Edaravone]	–	–	–	–	4.7	–
CC1=NN(c2ccc(C(=O)NCc3cc[n+](Cc4ccccc4Br)cc3)cc2)C(=O)C1 [Compound 5g, 1-[(2-Bromophenyl)methyl]-4-({[4–(3-methyl-5-oxo-4H-pyrazol-1-yl)phenyl]foramido}methyl)pyridin-1-ium bromide]	3.5	46	19	160	–	19
CC1=NN(c2ccc(C(=O)NCc3cc[n+](Cc4cccc(F)c4)cc3)cc2)C(=O)C1 [Compound 5c, 1-[(3-Fluorophenyl)methyl]-4-({[4–(3-methyl-5-oxo-4H-pyrazol-1-yl)phenyl]foramido}methyl)pyridin-1-ium bromide]	4.6	201	25	926	–	–
Cc1c(C)c2c(c(C)c1O)CCC(C)(C(=O)O)O2 (centres unmarked) [Trolox, reference compound]	–	–	13.1	–	–	–
CC1=NN(c2ccc(C(=O)NCc3cc[n+](Cc4cccc(Br)c4)cc3)cc2)C(=O)C1 [Compound 5h, 1-[(3-Bromophenyl)methyl]-4-({[4–(3-methyl-5-oxo-4H-pyrazol-1-yl)phenyl]foramido}methyl)pyridin-1-ium bromide]	> 100	–	13.3	> 1000	–	–
CC1=NN(c2ccc(C(=O)NCc3cc[n+](Cc4ccc(F)cc4)cc3)cc2)C(=O)C1 [Compound 5d, 1-[(4-Fluorophenyl)methyl]-4-({[4–(3-methyl-5-oxo-4H-pyrazol-1-yl)phenyl]foramido}methyl)pyridin-1-ium bromide]	3.6	>278	11.5	> 1000	–	–
CC1=NN(c2ccc(C(=O)NCc3ccncc3)cc2)C(=O)C1 [Compound 3, 4–(3-Methyl-5-oxo-4H-pyrazol-1-yl)-N-(pyridine-4-ylmethyl)benzamide]	> 100	–	12.5	> 1000	–	–
